Data published in ChEMBL document CHEMBL1139863, “Synthesis and in vitro antiprotozoal activities of dicationic 3,5-diphenylisoxazoles” (J Med Chem, 2007).

Assays:
[1] = system: Trypanosoma brucei rhodesiense; assay: Antitrypanosomal activity against Trypanosoma brucei rhodesiense; format: functional, organism-based
Plasmodium falciparum = assay: Antiplasmodial activity against chloroquine-resistant Plasmodium falciparum K1; format: functional, organism-based
L6 = assay: Cytotoxicity against rat L6 cells; format: cell-based

SMILES | IC50 [1] [nM] | IC50 (Plasmodium falciparum) [nM] | IC50 (L6) [nM]
CC(C)NC(=N)c1cccc(-c2cc(-c3cccc(C(=N)NC(C)C)c3)on2)c1 | 4980 | 43.1 | > 180000
CC(C)NC(=N)c1ccc(-c2cc(-c3ccc(C(=N)NC(C)C)cc3)on2)cc1 | 196 | 6.6 | > 176000
c1cc(-c2cc(-c3ccc(C4=NCCN4)cc3)on2)ccc1C1=NCCN1 | 87.2 | 4.1 | 1800
N=C(N)c1ccc(-c2cc(-c3ccccc3)on2)cc1 | 1120 | > 3300 | 18500
COc1cc(C(=N)N)ccc1-c1cc(-c2ccc(C(=N)N)cc2)no1 | 10.6 | 6 | 122000
N=C(N)c1ccc(-c2cc(-c3ccc(C(=N)N)cc3[N+](=O)[O-])no2)cc1 | 32.4 | 14.9 | 22200
COc1cc(C(=N)N)ccc1-c1cc(-c2cccc(C(=N)N)c2)no1 | 6.5 | 3.5 | 177000
N=C(N)c1cccc(-c2cc(-c3ccc(C(=N)N)cc3Cl)no2)c1 | 11.6 | 14.1 | 87400
N=C(N)c1ccc(-c2cc(-c3ccc(C(=N)N)cc3[N+](=O)[O-])on2)cc1 | 13.9 | 14.9 | 15800
N=C(N)c1ccc(-c2cc(-c3ccc(C(=N)N)cc3Cl)on2)cc1 | 15.5 | 7.9 | 41000
c1cc(C2=NCCN2)cc(-c2cc(-c3ccc(C4=NCCN4)cc3)on2)c1 | 1550 | 51.2 | 65000
CC(C)NC(=N)c1ccc(-c2cc(-c3cccc(C(=N)NC(C)C)c3)on2)cc1 | 316 | 34.7 | > 186000
c1cc(C2=NCCN2)cc(-c2cc(-c3ccc(C4=NCCN4)cc3)no2)c1 | 974 | 77 | 30200
N=C(N)c1ccc(-c2cc(-c3ccc(C(=N)N)cc3Cl)no2)cc1 | 23.2 | 55.5 | 5700
COc1cc(C(=N)N)ccc1-c1cc(-c2ccc(C(=N)N)cc2)on1 | 16.4 | 66.3 | 92600
N=C(N)c1ccc(-c2cc(-c3cccc(C(=N)N)c3)no2)cc1 | 6.3 | 57.8 | 24100
N=C(N)c1cccc(-c2cc(-c3ccc(C(=N)N)cc3[N+](=O)[O-])on2)c1 | 9 | 25.9 | 48000
N=C(N)c1cccc(-c2cc(-c3ccc(C(=N)N)cc3Cl)on2)c1 | 6.3 | 18.7 | 82700
CC(C)NC(=N)c1ccc(-c2cc(-c3cccc(C(=N)NC(C)C)c3)no2)cc1 | 488 | 10.6 | > 187000
N=C(N)c1ccc(-c2cc(-c3ccccc3)no2)cc1 | 1720 | > 3300 | 19100
N=C(N)c1ccc(-c2cc(-c3cccc(C(=N)N)c3)on2)cc1 | 3.5 | 2.5 | 31200
COc1cc(C(=N)N)ccc1-c1cc(-c2ccc(C(=N)N)cc2OC)on1 | 13 | 6.1 | 84800
N=C(N)c1ccc(-c2cc(-c3ccc(C(=N)N)cc3)on2)cc1 | 5.1 | 22.6 | 2100
N=C(N)c1cccc(-c2cc(-c3cccc(C(=N)N)c3)on2)c1 | 29 | 9.2 | 153000
N=C(N)c1cccc(-c2cc(-c3ccc(C(=N)N)cc3[N+](=O)[O-])no2)c1 | 19.4 | 30.4 | > 206000
c1cc(C2=NCCN2)cc(-c2cc(-c3cccc(C4=NCCN4)c3)on2)c1 | 18500 | 227 | 26200
COc1cc(C(=N)N)ccc1-c1cc(-c2cccc(C(=N)N)c2)on1 | 5.9 | 8.9 | 136000
C[C@@H]1CC[C@H]2[C@@H](C)C(=O)O[C@@H]3O[C@@]4(C)CC[C@@H]1[C@]32OO4 [ARTEMISININ] | – | 6.7 | –
N=C(N)c1ccc(-c2ccc(-c3ccc(C(=N)N)cc3)o2)cc1 [FURAMIDINE] | – | – | 16400
Nc1nc(N)nc(Nc2ccc([As]3SCC(CO)S3)cc2)n1 (centres undefined) [MELARSOPROL] | 6.4 | – | –
